Like-named read-outs stand apart in the source and are kept apart here.

The target in data set [1] is T1, aryl hydrocarbon receptor (AhR) (Rattus norvegicus, UniProt P41738).
T1 construct: rodent hepatic cytosol as a source of the AhR; from tissue; host or cells: rodent hepatic cytosol
T1 sequence (P41738 10-853): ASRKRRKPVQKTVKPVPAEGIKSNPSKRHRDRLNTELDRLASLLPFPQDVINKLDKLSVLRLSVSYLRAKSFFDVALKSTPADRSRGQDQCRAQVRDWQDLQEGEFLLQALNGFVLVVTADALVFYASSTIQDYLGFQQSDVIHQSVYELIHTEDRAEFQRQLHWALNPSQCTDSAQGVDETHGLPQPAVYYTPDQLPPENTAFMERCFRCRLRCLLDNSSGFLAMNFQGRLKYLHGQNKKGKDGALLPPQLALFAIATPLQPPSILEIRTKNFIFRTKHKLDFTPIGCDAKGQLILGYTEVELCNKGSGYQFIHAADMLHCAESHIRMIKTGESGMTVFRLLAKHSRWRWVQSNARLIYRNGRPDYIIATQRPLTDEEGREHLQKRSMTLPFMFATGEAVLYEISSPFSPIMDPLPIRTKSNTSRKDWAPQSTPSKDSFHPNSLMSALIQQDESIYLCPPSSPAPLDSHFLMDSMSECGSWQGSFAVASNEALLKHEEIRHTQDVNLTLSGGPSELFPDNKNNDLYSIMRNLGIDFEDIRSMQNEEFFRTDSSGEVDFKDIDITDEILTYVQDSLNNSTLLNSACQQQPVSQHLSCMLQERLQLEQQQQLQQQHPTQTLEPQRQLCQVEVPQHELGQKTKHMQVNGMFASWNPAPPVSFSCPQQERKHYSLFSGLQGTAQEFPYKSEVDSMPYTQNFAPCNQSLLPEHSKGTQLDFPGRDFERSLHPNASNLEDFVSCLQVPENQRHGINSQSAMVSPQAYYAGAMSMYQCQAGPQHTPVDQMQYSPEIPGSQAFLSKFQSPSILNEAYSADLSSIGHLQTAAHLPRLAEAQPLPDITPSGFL
Conditions: rodent hepatic cytosol, cited from earlier work.

For another data set, the target named is T2, estrogen receptor (Rattus norvegicus, UniProt P06211).
T2 construct: in rat uterine cytosol, which was obtained from ovariectomized uteri of Sprague-Dawley rats; from tissue; host or cells: uterine cytosol of ovariectomized Sprague-Dawley rats
T2 sequence (P06211 1-600): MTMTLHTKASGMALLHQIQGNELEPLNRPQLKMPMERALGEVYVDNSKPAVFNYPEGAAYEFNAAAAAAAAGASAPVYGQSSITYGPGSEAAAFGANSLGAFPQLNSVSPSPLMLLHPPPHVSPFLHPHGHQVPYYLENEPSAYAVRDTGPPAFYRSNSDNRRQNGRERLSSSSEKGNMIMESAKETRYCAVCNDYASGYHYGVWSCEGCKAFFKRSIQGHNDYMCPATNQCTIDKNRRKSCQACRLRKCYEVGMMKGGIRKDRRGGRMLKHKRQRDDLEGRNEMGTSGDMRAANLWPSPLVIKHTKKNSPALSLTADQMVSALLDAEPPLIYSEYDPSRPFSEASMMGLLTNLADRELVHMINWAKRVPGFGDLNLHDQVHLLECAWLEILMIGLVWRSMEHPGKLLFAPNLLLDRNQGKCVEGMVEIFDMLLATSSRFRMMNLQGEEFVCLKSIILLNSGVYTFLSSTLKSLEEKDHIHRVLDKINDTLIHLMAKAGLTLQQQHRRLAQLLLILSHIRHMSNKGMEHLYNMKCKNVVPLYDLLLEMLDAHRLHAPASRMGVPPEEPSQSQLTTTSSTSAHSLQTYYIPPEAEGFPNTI
The experiment in a line: Competitive ER binding assay with [3H]E2 in rat uterine cytosol (NCTR). The source says:
The log relative binding activity (RBA) data for these 130 structurally diverse compounds was used to train the CoSCoSA models. The data was produced at NCTR using a competitive ER binding assay with radiolabeled estradiol ([^3H]E2) in rat uterine cytosol, which was obtained from ovariectomized uteri of Sprague-Dawley rats. […] For each of the 130 compounds, the ^13C 2D ^13C—^13C COSY NMR experiment was simulated using the ACD Labs CNMR version 5.0 2D predictor software. The COSY NMR spectra could be saved as two tables per compound.

The mark [2] stands for this setting: log scale, competitive binding, [3H]-2,3,7,8-tetrachlorodioxin, previously reported training data.
Setting [3] is: previously reported competitive in vitro AhR binding, [3H]-2,3,7,8-tetrachlorodioxin radioligand, values are log EC50.
[4] abbreviates: relative binding affinity vs 17-β-estradiol (RBA 100), rat uterine cytosol, 130 compound training set.

Turning to `Clc1cc2c(cc1Cl)Oc1c(Cl)c(Cl)c(Cl)c(Cl)c1O2` [1,2,3,4,7,8-hexaCl-dibenzodioxin], the “Experimental Log EC50” value in data set [1] (setting [2]) and in data set [1] (setting [3]) was −7.55 throughout.
Consider `Clc1cc2oc3c(Cl)c(Cl)c(Cl)c(Cl)c3c2cc1Cl` [1,2,3,4,7,8-hexaCl-dibenzofuran], for which the “Experimental Log EC50” value in data set [1] (setting [2]) and in data set [1] (setting [3]) was −7.64 in each case.
With `Clc1ccc2c(c1)Oc1c(Cl)c(Cl)c(Cl)c(Cl)c1O2` [1,2,3,4,7-pentaCl-dibenzodioxin], the “Experimental Log EC50” value in data set [1] (setting [2]) and in data set [1] (setting [3]) was −6.19 throughout.
In the case of `Clc1c(Cl)c(Cl)c2c(c1Cl)Oc1ccccc1O2` [1,2,3,4-tetraCldibenzodioxin], the “Experimental Log EC50” value in data set [1] (setting [2]) and in data set [1] (setting [3]) was −6.88 each time.
As for `Clc1cc2c(oc3cc(Cl)c(Cl)c(Cl)c32)c(Cl)c1Cl` [1,2,3,6,7,8-hexaCl-dibenzofuran], the “Experimental Log EC50” value in data set [1] (setting [2]) and in data set [1] (setting [3]) was −7.57 each time.
Turning to `Clc1cc2oc3c(Cl)cccc3c2c(Cl)c1Cl` [1,2,3,6-tetraCl-dibenzofuran], the “Experimental Log EC50” value in data set [1] (setting [2]) and in data set [1] (setting [3]) was −7.46 throughout.
For the molecule `Clc1cc2c(cc1Cl)Oc1c(cc(Cl)c(Cl)c1Cl)O2` [1,2,3,7,8-pentaCl-dibenzodioxin], the “Experimental Log EC50” value in data set [1] (setting [2]) and in data set [1] (setting [3]) was −8.10 each time.
Take `Clc1cc2oc3cc(Cl)c(Cl)c(Cl)c3c2cc1Cl` [1,2,3,7,8-pentaCl-dibenzofuran]: the “Experimental Log EC50” value in data set [1] (setting [2]) and in data set [1] (setting [3]) was −8.12 throughout.
With `Clc1cc(Cl)c2c(c1)oc1cc(Cl)c(Cl)c(Cl)c12` [1,2,3,7,9-pentaCl-dibenzofuran], the “Experimental Log EC50” value in data set [1] (setting [2]) and in data set [1] (setting [3]) was −7.40 in each case.
`Clc1ccc2c(c1)oc1cc(Cl)c(Cl)c(Cl)c12` [1,2,3,7-tetraCl-dibenzofuran]: the “Experimental Log EC50” value in data set [1] (setting [2]) and in data set [1] (setting [3]) was −7.96 in each case.
As for `Clc1cc2c(oc3c(Cl)cc(Cl)c(Cl)c32)c(Cl)c1Cl` [1,2,4,6,7,8-hexaCl-dibenzofuran], the “Experimental Log EC50” value in data set [1] (setting [2]) and in data set [1] (setting [3]) was −6.08 in each case.
On to `Clc1cc2c(cc1Cl)Oc1c(Cl)c(Cl)cc(Cl)c1O2` [1,2,4,7,8-pentaCl-dibenzodioxin], for which the “Experimental Log EC50” value in data set [1] (setting [2]) and in data set [1] (setting [3]) was −6.96 in each case.
Regarding `Clc1cc(Cl)c2c(c1)oc1c(Cl)cc(Cl)c(Cl)c12` [1,2,4,7,9-pentaCl-dibenzofuran], the “Experimental Log EC50” value in data set [1] (setting [2]) and in data set [1] (setting [3]) was −5.70 each time.
Consider `Clc1ccc2oc3c(Cl)cc(Cl)c(Cl)c3c2c1` [1,2,4,8-tetraCl-dibenzofuran], for which the “Experimental Log EC50” value in data set [1] (setting [2]) and in data set [1] (setting [3]) was −6.00 throughout.
Turning to `Clc1cc(Cl)c2c(c1Cl)Oc1ccccc1O2` [1,2,4-triCl-dibenzodioxin], the “Experimental Log EC50” value in data set [1] (setting [2]) and in data set [1] (setting [3]) was −5.88 throughout.
`Clc1cc2oc3c(Cl)c(Cl)cc(Cl)c3c2cc1Cl` [1,3,4,7,8-pentaCl-dibenzofuran]: the “Experimental Log EC50” value in data set [1] (setting [2]) and in data set [1] (setting [3]) was −7.70 in each case.
`Clc1cc(Cl)c2c(c1)Oc1cc(Cl)c(Cl)cc1O2` [1,3,7,8-tetraCl-dibenzodioxin]: the “Experimental Log EC50” value in data set [1] (setting [2]) and in data set [1] (setting [3]) was −7.10 each time.
`Clc1cccc2c1Oc1ccccc1O2` [1-Cl-dibenzodioxin]: the “Experimental Log EC50” value in data set [1] (setting [2]) and in data set [1] (setting [3]) was −5.00 each time.
As to `Clc1ccc(-c2cc(Cl)c(Cl)c(Cl)c2Cl)cc1Cl` [2,3,3′,4,4′,5-hexaCl-biphenyl], the “Experimental Log EC50” value in data set [1] (setting [2]) and in data set [1] (setting [3]) was −6.30 each time.
In the case of `O=c1c(O)c(-c2ccc(O)c(O)c2)oc2cc(O)ccc12` [fisetin], on estrogen receptor (setting [4]), the “Exp. Log(RBA)” value is recorded as −2.35.
Turning to `CCCCCCCOC(=O)c1ccc(O)cc1` [heptyl-4-hydroxybenzoate], the “Exp. Log(RBA)” value at estrogen receptor (setting [4]) was −2.09.
As to `CC[C@H](c1ccc(O)cc1)[C@@H](CC)c1ccc(O)cc1` [meso-hexestrol], the “Exp. Log(RBA)” value at estrogen receptor is reported as 2.48.
Same read-out and setting: under `C#C[C@]1(O)CC[C@H]2[C@@H]3CCc4cc(OC)ccc4[C@H]3CC[C@@]21C` [mestranol] stands 0.35.
For the molecule `COC(=O)c1ccc(O)cc1` [methyl-4-hydrobenzoate], the “Exp. Log(RBA)” value at estrogen receptor (setting [4]) was −3.44.
For the molecule `COc1ccc(C(c2ccc(O)cc2)C(Cl)(Cl)Cl)cc1` (stereo not shown) [monohydroxymethoxychlor], on estrogen receptor (setting [4]), the “Exp. Log(RBA)” value is recorded as −0.89.
In the case of `COc1ccc(C(=C(Cl)Cl)c2ccc(O)cc2)cc1` [monohydroxymethoxychlorolefin], at estrogen receptor (setting [4]), the “Exp. Log(RBA)” value is −0.63.
Turning to `CCC(c1ccc(O)cc1)C(CC)c1ccc(OC)cc1` (stereo not shown) [monomethyl ether hexestrol], the “Exp. Log(RBA)” value at estrogen receptor (setting [4]) was found to be 0.97.
Still for that read-out and setting: next, `O=c1c(O)c(-c2ccc(O)cc2O)oc2cc(O)cc(O)c12` [morin]: −3.35.
As to `C#C[C@]1(O)CC[C@H]2[C@@H]3CCc4cc(O)ccc4[C@H]3[C@@H](OC)C[C@@]21C` [moxestrol], at estrogen receptor, the “Exp. Log(RBA)” value was 1.14.
Same read-out and setting: under `O=c1c(O)c(-c2cc(O)c(O)c(O)c2)oc2cc(O)cc(O)c12` [myricetin] stands −2.75; under `O=C1C[C@@H](c2ccc(O)cc2)Oc2cc(O)cc(O)c21` [naringenin], −2.13.
Consider `CC(Cc1ccc(O)c(O)c1)C(C)Cc1ccc(O)c(O)c1` (stereo not shown) [nordihydroguariareticacid], for which the “Exp. Log(RBA)” value at estrogen receptor (setting [4]) is on record as −1.51.
On the same count and under the same terms, next, `Clc1ccc(C(c2ccccc2Cl)C(Cl)(Cl)Cl)cc1` (stereo not shown) [o,p′,-DDT]: −2.85.
`Oc1ccc(-c2ccccc2)cc1` [p-phenylphenol]: the “Exp. Log(RBA)” value on estrogen receptor is −3.04.
With `O=C(O)c1ccccc1C(c1ccc(O)cc1)c1ccc(O)cc1` [phenolphthalin], the “Exp. Log(RBA)” value on estrogen receptor (setting [4]) is recorded as −3.67.
Consider `O=C(CCc1ccc(O)cc1)c1c(O)cc(O)cc1O` [phloretin], for which, on estrogen receptor, the “Exp. Log(RBA)” value is given as −1.16.
The same measure, in the same setting: under `CCCOC(=O)c1ccc(O)cc1` [propyl-4-hydroxybenzoate] stands −3.22.
`COc1cc(O)c2c(=O)c(-c3ccc(O)cc3)coc2c1` [prunetin]: the “Exp. Log(RBA)” value on estrogen receptor is reported as −2.74.
As to `C(=C(c1ccccc1)c1ccccc1)c1ccccc1` [triphenylethylene], at estrogen receptor (setting [4]), the “Exp. Log(RBA)” value was −2.78.
As for `C[C@H]1CCCC(=O)CCCCCc2cc(O)cc(O)c2C(=O)O1` [zearalanone], the “Exp. Log(RBA)” value on estrogen receptor is 0.32.
Take `CCC(c1ccc2cc(O)ccc2c1)C(C)(C)C(=O)O` (stereo not drawn) [α,α-dimethylbethyl allenolic acid]: the “Exp. Log(RBA)” value at estrogen receptor (setting [4]) is −0.02.
Still for that read-out and setting: next, `C[C@H]1CCC[C@H](O)CCCCCc2cc(O)cc(O)c2C(=O)O1` [α-zearalanol]: 1.48.
For the molecule `C[C@H]1CCC[C@H](O)CCC/C=C/c2cc(O)cc(O)c2C(=O)O1` [α-zearalenol], the “Exp. Log(RBA)” value at estrogen receptor (setting [4]) was 1.63.
For the molecule `C[C@H]1CCC[C@@H](O)CCCCCc2cc(O)cc(O)c2C(=O)O1` [β-zearalanol], the “Exp. Log(RBA)” value on estrogen receptor (setting [4]) is recorded as −0.19.
As for `C[C@H]1CCC[C@@H](O)CCC/C=C/c2cc(O)cc(O)c2C(=O)O1` [β-zearalenol], the “Exp. Log(RBA)” value on estrogen receptor (setting [4]) was −0.69.

The record behind these values is patent publication US7996156B2, “Methods for predicting properties of molecules” (priority 2002, dated 2011).
